Laboratory results: US20230192700A1, “PYRAZOLOPYRAZINES ACTING ON CANCERS VIA INHIBITION OF CDK12” (Bayer Aktiengesellschaft, priority 2020, published 2023)

How the values were obtained:
CDK12 = molecular target: T1, CDK12 (Homo sapiens, UniProt Q9NYV4); assay: CDK12 nuclear protein level: immunofluorescence/high content analysis in CAL-120 cells; format: cell-based
T1 construct: endogenous in cells; host or cells: CAL-120 human breast cancer cells (DSMZ ACC 459)
Experimental: 6. CDK12 Nuclear Protein Level: Immunofluorescence/High Content Analysis
In the context of the present invention, the term “DC50 CDK12” refers to the DC50 values obtained according to the assay described in this section (6) herein below, i.e. the DC50 values for the degradation of CDK12.:
(§1) CAL-120 human breast cancer cells (DSMZ ACC 459) are seeded in 1536-well microtiter plates (800 cells per well) containing 50 nanoL of compounds in Dose-Response. Control wells received DMSO or Reference Example 1. Plates are then incubated for 24 h at 37° C. in an humidified incubator and fixed with 4% PFA for 10 min. Then immunofluorescence (IF) against CDK12 (CellSignalling CDK12 Antibody #11973, rabbit, 1:100 dilution) is performed using standard IF protocols. Cells are then stained with Hoechst 33342 (Life Technologies, H-1399, 0.1 microg/mL) and imaged on an automated confocal microscopy system (e.g. Perkin Elmer Opera Phenix). Nuclear and cytoplasmic intensity as well as the nuclear/cytoplasmic intensity ratio is determined by automated image analysis using custom generated scripts (MetaXpress). Data is then transferred to Genedata Screener software, normalized to DMSO and control and DC50 values (degrading concentration to achieve 50% reduction of nuclear CDK12 staining intensity relative to controls) are reported.

CDK12/CyclinK = molecular target: T2, CDK12/CyclinK (Homo sapiens, UniProt Q9NYV4); assay: CDK12/CycK high ATP kinase assay (TR-FRET); format: biochemical; settings: 2 mM ATP (high ATP); median; read-out: CDK12/CyclinK, 2 mM ATP (high ATP), IC50 - [mol/l] (median)
T2 construct: His-CDK12 (aa Q696-S1082); made in house; host or cells: Hi-5 insect cells (baculovirus co-infection with CycK and yeast CAK1)
Excerpt: 2.2 CDK12/CycK high ATP Kinase Assay
In the context of the present invention, the term “IC50 CDK12 hATP” refers to the ICso values obtained according to the assay described in this section (2.2) herein below, i.e. the IC50 values for the inhibition of CDK12 at high ATP.
CDK12/CycK -inhibitory activity of compounds of the present invention at 2 millimol/L adenosine-tri-phosphate (ATP) was quantified employing the TR-FRET (TR-FRET=Time Resolved Fluorescence Energy Transfer) based CDK12/CycK activity inhibition assay as described in the following paragraphs.
A complex of human recombinant CDK12 and human recombinant CycK (both N-terminally His-tagged, expression and purification as described above) was used as enzyme. As substrate for the kinase reaction biotinylated peptide biotin-Ahx-KFELLPTPPLSPSRRSGL (C-terminus in amid form) was used which can be purchased e.g. form the company Biosyntan (Berlin-Buch, Germany).
For the assay 50 nanoL of a 100 fold concentrated solution of the test compound in DMSO was pipetted into either a black low volume 384 well microtiter plate or a black 1536 well microtiter plate (both Greiner Bio-One, Frickenhausen, Germany), 2 microL of a solution of CDK12/CycK in aqueous assay buffer [25 millimol/L HEPES pH 7.5, 20 millimol/L MgCl2, 5 millimol/L β-glycerophosphate, 2 millimol/L EGTA, 1.0 millimol/L dithiothreitol, 0.01% (v/v) Nonidet-P40 (Sigma), 0.01% (w/v) bovine serum albumin] were added and the mixture was incubated for 15 min at 22° C. to allow pre-binding of the test compounds to the enzyme before the start of the kinase reaction. Then the kinase reaction was started by the addition of 3 microL of a solution ATP (3.33 millimol/L=>final conc. in the 5 microL assay volume is 2 millimol/L) and substrate (1.67 micromol/L=>final conc. in the 5 microL assay volume is 1 micromol/L) in assay buffer and the resulting mixture was incubated for a reaction time of 60 min at 22° C. The concentration of CDK12/CycK was adjusted depending of the activity of the enzyme lot and was chosen appropriate to have the assay in the linear range, typical concentrations were about 0.75 nanomol/L. The reaction was stopped by the addition of 3 microL of a solution of TR-FRET detection reagents (125 nanomol/L streptavidine-XL665 [Cisbio Bioassays, Codolet, France] and 0.67 nanomol/L anti-Phospho-c-Myc (Ser 62) (E1J4K)-antibody from Cell Signalling [#13748] and 2 nanomol/L LANCE EU-W1024 labeled anti-rabbit IgG antibody [Perkin-Elmer, product no. 0083]) in an aqueous EDTA-solution (133 millimol/L EDTA, 0.27% (w/v) bovine serum albumin in 66.7 millimol/L HEPES pH 7.5).
The resulting mixture was incubated 1 h at 22° C. to allow the formation of complex between the phosphorylated biotinylated peptide and the detection reagents. Subsequently the amount of phosphorylated substrate was evaluated by measurement of the resonance energy transfer from the Eu-chelate to the streptavidine-XL. Therefore, the fluorescence emissions at 620 nm and 665 nm after excitation at 350 nm was measured in a TR-FRET reader, e.g. a Pherastar FS (BMG Labtechnologies, Offenburg, Germany) or a Viewlux (Perkin-Elmer). The ratio of the emissions at 665 nm and at […] was taken as the measure for the amount of phosphorylated substrate. The data were normalised (enzyme reaction without inhibitor=0% inhibition, all other assay components but no enzyme=100% inhibition).

CYCLIN K = molecular target: T3, CYCLIN K (Homo sapiens, UniProt O75909); assay: CYCLIN K nuclear protein level: immunofluorescence/high content analysis in CAL-120 cells; format: cell-based; settings: 24 h, nuclear CCNK staining intensity, median, read-out: CYCLIN K degradation IF, DC50- [mol/l] (median)
T3 construct: endogenous in cells; host or cells: CAL-120 human breast cancer cells (DSMZ ACC 459)
Experimental: 7. CYCLIN K Nuclear Protein Level: Immunofluorescence/High Content Analysis
In the context of the present invention, the term “DC50 Cyclin K” refers to the DC50 values obtained according to the assay described in this section (7) herein below, i.e. the DC50 values for the degradation of Cyclin K.
as §1, with “CYCLIN K (ThermoFisher Scientific CCNK” for “CDK12 (CellSignalling CDK12”, “# PA5-85020,” for “#11973,”, “1:200” for “1:100”, “CCNK” for “CDK12”

T1 sequence (Q9NYV4 whole entry): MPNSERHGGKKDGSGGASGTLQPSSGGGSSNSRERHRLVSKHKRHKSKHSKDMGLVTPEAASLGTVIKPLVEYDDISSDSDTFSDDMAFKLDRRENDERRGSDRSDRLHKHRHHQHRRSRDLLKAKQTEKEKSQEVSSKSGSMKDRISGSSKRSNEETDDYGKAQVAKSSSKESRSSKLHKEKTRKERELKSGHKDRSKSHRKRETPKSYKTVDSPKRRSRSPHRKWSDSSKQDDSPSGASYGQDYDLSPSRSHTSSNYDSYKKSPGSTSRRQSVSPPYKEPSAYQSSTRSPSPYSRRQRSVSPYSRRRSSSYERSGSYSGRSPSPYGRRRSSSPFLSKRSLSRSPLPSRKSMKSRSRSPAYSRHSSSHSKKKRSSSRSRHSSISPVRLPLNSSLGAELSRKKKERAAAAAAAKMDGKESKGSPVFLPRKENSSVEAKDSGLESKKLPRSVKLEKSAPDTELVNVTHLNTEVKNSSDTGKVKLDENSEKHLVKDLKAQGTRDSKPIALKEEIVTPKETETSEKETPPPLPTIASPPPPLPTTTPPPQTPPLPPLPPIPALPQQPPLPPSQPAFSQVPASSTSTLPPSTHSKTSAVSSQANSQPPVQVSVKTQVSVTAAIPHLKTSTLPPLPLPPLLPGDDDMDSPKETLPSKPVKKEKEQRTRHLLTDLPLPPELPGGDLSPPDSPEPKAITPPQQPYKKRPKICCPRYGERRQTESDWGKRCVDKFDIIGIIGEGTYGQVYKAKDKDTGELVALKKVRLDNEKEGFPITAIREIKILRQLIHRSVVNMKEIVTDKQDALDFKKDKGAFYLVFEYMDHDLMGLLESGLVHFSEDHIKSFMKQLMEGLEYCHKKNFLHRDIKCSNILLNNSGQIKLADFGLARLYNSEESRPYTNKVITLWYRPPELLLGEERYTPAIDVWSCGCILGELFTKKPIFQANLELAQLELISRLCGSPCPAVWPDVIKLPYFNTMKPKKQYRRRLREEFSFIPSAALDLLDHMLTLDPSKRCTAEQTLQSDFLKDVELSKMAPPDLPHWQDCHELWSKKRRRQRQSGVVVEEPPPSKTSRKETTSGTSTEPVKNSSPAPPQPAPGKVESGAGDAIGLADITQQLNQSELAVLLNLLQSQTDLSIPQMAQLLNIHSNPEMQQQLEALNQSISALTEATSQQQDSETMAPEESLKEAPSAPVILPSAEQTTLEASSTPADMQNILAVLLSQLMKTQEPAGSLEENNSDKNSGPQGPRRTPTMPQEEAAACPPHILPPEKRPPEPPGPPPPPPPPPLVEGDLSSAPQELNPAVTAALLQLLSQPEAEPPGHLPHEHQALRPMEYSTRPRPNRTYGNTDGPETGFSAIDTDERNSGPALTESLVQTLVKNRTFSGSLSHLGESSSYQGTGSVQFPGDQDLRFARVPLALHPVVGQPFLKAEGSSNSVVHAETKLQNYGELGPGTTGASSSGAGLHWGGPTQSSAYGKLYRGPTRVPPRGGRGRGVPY
T1 sequence (O75909 whole entry partner): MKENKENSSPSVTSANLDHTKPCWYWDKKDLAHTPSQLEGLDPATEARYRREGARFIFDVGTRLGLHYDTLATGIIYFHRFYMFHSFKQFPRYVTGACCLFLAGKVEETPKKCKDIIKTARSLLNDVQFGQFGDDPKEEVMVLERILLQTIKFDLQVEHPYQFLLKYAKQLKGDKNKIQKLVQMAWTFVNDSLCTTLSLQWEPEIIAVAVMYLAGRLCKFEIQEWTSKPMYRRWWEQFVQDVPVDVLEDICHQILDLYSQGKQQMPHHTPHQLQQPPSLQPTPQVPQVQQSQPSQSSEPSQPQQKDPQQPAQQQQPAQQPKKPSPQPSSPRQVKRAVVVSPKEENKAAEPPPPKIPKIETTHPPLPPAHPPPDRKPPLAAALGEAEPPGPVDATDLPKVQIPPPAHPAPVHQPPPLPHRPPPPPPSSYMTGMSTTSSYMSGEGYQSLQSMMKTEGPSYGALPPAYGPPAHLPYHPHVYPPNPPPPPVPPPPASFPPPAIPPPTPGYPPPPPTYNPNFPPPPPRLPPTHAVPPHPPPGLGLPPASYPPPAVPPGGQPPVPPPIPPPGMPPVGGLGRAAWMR
T2 sequence (Q9NYV4 with tags, fused parts or gaps): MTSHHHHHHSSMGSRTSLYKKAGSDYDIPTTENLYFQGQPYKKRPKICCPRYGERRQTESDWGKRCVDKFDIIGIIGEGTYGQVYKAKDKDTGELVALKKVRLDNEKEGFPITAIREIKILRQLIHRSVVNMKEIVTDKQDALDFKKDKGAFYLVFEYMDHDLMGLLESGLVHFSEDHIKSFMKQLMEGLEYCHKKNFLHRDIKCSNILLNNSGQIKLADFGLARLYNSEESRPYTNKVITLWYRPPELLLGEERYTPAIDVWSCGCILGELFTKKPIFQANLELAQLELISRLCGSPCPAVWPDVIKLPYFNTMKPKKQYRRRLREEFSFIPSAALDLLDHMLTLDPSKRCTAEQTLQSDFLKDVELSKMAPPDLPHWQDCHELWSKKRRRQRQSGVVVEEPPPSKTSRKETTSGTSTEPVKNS
T2 sequence (O75909 with tags, fused parts or gaps partner limits assumed): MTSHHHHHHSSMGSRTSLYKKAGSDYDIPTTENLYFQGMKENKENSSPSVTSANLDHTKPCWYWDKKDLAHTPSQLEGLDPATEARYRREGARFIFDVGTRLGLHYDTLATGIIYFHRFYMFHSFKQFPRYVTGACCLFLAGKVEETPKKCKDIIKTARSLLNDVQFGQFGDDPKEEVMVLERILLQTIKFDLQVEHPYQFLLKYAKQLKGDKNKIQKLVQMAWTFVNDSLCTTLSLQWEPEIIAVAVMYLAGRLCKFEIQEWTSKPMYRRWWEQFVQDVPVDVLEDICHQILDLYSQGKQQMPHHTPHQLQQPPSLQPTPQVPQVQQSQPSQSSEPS
T3 sequence (O75909 whole entry): as the sequence (O75909 whole entry partner) above
T3 sequence (Q9NYV4 whole entry partner): as the sequence (Q9NYV4 whole entry) above

SMILES: CN1CCC(n2nc(NCc3nc4c(OC(F)(F)F)cccc4[nH]3)c3ncc(C4CC4)nc32)CC1 [Example 5, 6-cyclopropyl-1-(1-methylpiperidin-4-yl)-N-{[4-(trifluoromethoxy)-1H-benzimidazol-2-yl]methyl}-1H-pyrazolo[3,4-b]pyrazin-3-amine]
- DC50 (CDK12; CAL-120 cells, 24 h, nuclear CDK12 staining intensity, median, read-out: CDK12 degradation IF DC50 - [mol/l] (median)): 0.0834 µM
- (IC50 CDK12 high ATP) to (Degradation DC50 CDK12) ratio (CDK12; ratio of IC50 CDK12 hATP (2 mM ATP) to DC50 CDK12 (IF, CAL-120)): >239
- IC50 (CDK12/CyclinK): > 20 µM
- DC50 (CYCLIN K): 0.00346 µM
